Data published in patent US9096624B2 (OSI Pharmaceuticals, LLC, priority 2009, dated 2015).

Key:
FAK [1] = target: T1, FAK (Homo sapiens, UniProt Q05397); assay: biochemical
FAK [2] = target: T1, FAK; assay: Cell-based capture ELISA for inhibition of FAK autophosphorylation [pY397] in MiaPaCa2 cells
Method: Cell-Based Assays for Inhibition of FAK Autophosphorylation: MiaPaCa2 and U87MG
ELISA kit from Invitrogen (KHO0441).
Reagents Provided in Biosource FAK [pY397]
The cells were then suspended in cell assay medium.

[3] = MIA-PaCa2 cells on fibronectin, 2 h, no plasma, read-out: Mean FAK Cell Mechanistic IC50 MIA-PaCa2
[4] = MIA-PaCa2 cells, + 50% human plasma, read-out: Mean FAK Cell Mechanistic IC50 + 50% hP MIA-PaCa2
[5] = MIA-PaCa2 cells, + 50% mouse plasma (Table 2), read-out: Mean FAK Cell Mechanistic IC50 + 50% mP MIA-PaCa2

T1 sequence (Q05397 whole entry): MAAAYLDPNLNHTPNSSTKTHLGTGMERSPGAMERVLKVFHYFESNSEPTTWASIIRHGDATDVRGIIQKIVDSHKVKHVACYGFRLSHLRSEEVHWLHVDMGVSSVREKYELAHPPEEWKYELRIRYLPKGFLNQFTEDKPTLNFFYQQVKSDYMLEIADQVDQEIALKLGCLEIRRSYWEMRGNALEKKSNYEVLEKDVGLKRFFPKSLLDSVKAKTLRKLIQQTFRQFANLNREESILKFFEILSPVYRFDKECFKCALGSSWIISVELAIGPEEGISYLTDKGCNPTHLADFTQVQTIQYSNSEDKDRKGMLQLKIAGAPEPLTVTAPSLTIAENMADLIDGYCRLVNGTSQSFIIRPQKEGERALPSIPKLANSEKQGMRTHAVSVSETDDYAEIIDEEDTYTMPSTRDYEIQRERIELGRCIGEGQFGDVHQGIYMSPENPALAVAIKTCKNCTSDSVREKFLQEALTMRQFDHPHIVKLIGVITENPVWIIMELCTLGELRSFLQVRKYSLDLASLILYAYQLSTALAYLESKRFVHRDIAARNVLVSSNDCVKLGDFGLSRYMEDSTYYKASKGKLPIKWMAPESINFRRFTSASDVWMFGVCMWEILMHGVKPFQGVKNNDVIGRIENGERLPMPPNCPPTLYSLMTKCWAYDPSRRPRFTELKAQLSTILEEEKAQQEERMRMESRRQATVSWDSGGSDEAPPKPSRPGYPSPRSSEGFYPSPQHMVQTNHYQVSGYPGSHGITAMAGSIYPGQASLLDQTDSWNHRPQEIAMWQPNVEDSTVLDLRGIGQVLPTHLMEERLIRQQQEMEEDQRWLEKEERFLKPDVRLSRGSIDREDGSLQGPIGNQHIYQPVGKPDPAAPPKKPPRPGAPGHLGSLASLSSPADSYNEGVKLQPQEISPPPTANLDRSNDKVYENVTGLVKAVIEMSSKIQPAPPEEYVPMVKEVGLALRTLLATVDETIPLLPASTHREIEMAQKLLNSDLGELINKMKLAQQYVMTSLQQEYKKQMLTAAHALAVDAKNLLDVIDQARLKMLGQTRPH

Compound | IC50 (FAK [1]) | IC50 (FAK [2]; [3]) | IC50 (FAK [2]; [4]) | IC50 (FAK [2]; [5])
CCOP(=O)(O)Cc1cccc(Nc2ncc(C(F)(F)F)c(NCc3cccnc3N(C)S(C)(=O)=O)n2)c1 [Example 44, Ethyl hydrogen [3-({4[({2-[methyl(methylsulfonyl)amino]pyridin-3-yl}methyl)amino]-5-(trifluoromethyl)pyrimidin-2-yl}amino)benzyl]phosphonate] | < 1 µM | > 10 µM | > 10 µM | 
CCOP(C)(=O)Cc1ccc(Nc2ncc(C(F)(F)F)c(NCc3cccnc3N(C)S(C)(=O)=O)n2)cc1 (stereo not drawn) [Example 45, Ethyl methyl[4-({4-[({2-[methyl(methylsulfonyl)amino]pyridin-3-yl}methyl)amino]-5-(trifluoromethyl)pyrimidin-2-yl}amino)benzyl]phosphinate] | < 1 µM | < 1 µM | < 1 µM | 
CCOP(=O)(Cc1ccc(Nc2ncc(C(F)(F)F)c(NCc3cccc([S+](C)[O-])c3)n2)cc1)OCC (stereo not drawn) [Example 47, diethyl (4-{[4-{[3-(methylsulfinyl)benzyl]amino}-5-(trifluoromethyl)pyrimidin-2-yl]amino}benzyl)phosphonate] | < 1 µM |  |  | 1 to 10 µM
CCOP(=O)(Cc1ccc(Nc2ncc(Cl)c(Nc3ccccc3C(=O)NC)n2)cc1)OCC [Example 48, Diethyl {4-[(5-chloro-4-{[2-(methylcarbamoyl)phenyl]amino}pyrimidin-2-yl)amino]benzyl}phosphonate] | < 1 µM |  |  | 1 to 10 µM
CCOP(=O)(Cc1ccc(Nc2ncc(Br)c(Nc3ccccc3C(=O)NC)n2)cc1)OCC [Example 49, Diethyl {4-[(5-bromo-4-{[2-(methylcarbamoyl)phenyl]amino}pyrimidin-2-yl)amino]benzyl}phosphonate] | < 1 µM | < 1 µM | < 1 µM | 
CCOP(=O)(Cc1ccc(Nc2ncc(C(F)(F)F)c(NCc3cccnc3N(C)S(C)(=O)=O)n2)cc1)c1ccccc1 (stereo not drawn) [Example 50, Ethyl [4-({4-[({2-[methyl(methylsulfonyl)amino]pyridin-3-yl}methyl)amino]-5-(trifluoromethyl)pyrimidin-2-yl}amino)benzyl]phenylphosphinate] | < 1 µM |  |  | 1 to 10 µM
CCOP(=O)(Cc1cccc(Nc2ncc(C(F)(F)F)c(NCc3cccnc3N(C)S(C)(=O)=O)n2)c1)c1ccccc1 (stereo not drawn) [Example 51, Ethyl [3-({4-[({2-[methyl(methylsulfonyl)amino]pyridin-3-yl}methyl)amino]-5-(trifluoromethyl)pyrimidin-2-yl}amino)benzyl]phenylphosphinate] | < 1 µM |  |  | > 10 µM
CCOP(C)(=O)Cc1ccc(Nc2ncc(C(F)(F)F)c(Nc3ccccc3C(=O)NC)n2)c(OC)c1 (stereo not drawn) [Example 52, Ethyl (3-methoxy-4-{[4-{[2-(methylcarbamoyl)phenyl]amino}-5-(trifluoromethyl)pyrimidin-2-yl]amino}benzyl)methylphosphinate] | < 1 µM | < 1 µM | < 1 µM | 
CCCCOP(=O)(Cc1cccc(Nc2ncc(C(F)(F)F)c(NCc3cccnc3N(C)S(C)(=O)=O)n2)c1)OCCCC [Example 54, dibutyl [3-({4-[({2-[methyl(methylsulfonyl)amino]pyridin-3-yl}methyl)amino]-5-(trifluoromethyl)pyrimidin-2-yl}amino)benzyl]phosphonate] | < 1 µM |  |  | > 10 µM
CN(c1ncccc1CNc1nc(Nc2cccc(CP(=O)(OCC(C)(C)C)OCC(C)(C)C)c2)ncc1C(F)(F)F)S(C)(=O)=O [Example 55, bis(2,2-dimethylpropyl) [3-({4-[({2-[methyl(methylsulfonyl)amino]pyridin-3-yl}methyl)amino]-5-(trifluoromethyl)pyrimidin-2-yl}amino)benzyl]phosphonate] | < 1 µM |  |  | > 10 µM
COP(=O)(Cc1cccc(Nc2ncc(C(F)(F)F)c(NCc3cccnc3N(C)S(C)(=O)=O)n2)c1)OC [Example 56, dimethyl [3-({4-[({2-[methyl(methylsulfonyl)amino]pyridin-3-yl}methyl)amino]-5-(trifluoromethyl)pyrimidin-2-yl}amino)benzyl]phosphonate] | < 1 µM | < 1 µM | < 1 µM | 
CCCOP(=O)(OCCC)c1cccc(Nc2ncc(C(F)(F)F)c(NCc3cccnc3N(C)S(C)(=O)=O)n2)c1 [Example 57, dipropyl [3-({4-[({2-[methyl(methylsulfonyl)amino]pyridin-3-yl}methyl)amino]-5-(trifluoromethyl)pyrimidin-2-yl}amino)phenyl]phosphonate] | < 1 µM |  |  | 1 to 10 µM
CC(C)OP(=O)(OC(C)C)c1cccc(Nc2ncc(C(F)(F)F)c(NCc3cccnc3N(C)S(C)(=O)=O)n2)c1 [Example 58, dipropan-2-yl [3-({4-[({2-[methyl(methylsulfonyl)amino]pyridin-3-yl}methyl)amino]-5-(trifluoromethyl)pyrimidin-2-yl}amino)phenyl]phosphonate] | < 1 µM |  |  | 1 to 10 µM
CN(c1ncccc1CNc1nc(Nc2cccc(P3(=O)OCC(C)(C)CO3)c2)ncc1C(F)(F)F)S(C)(=O)=O [Example 59, N-[3-({[2-{[3-(5,5-dimethyl-2-oxido-1,3,2-dioxaphosphinan-2-yl)phenyl]amino}-5-(trifluoromethyl)pyrimidin-4-yl]amino}methyl)pyridin-2-yl]-N-methylmethanesulfonamide] | < 1 µM |  |  | 1 to 10 µM
CN(c1ncccc1CNc1nc(Nc2ccc(P3(=O)OCC(C)(C)CO3)cc2)ncc1C(F)(F)F)S(C)(=O)=O [Example 60, N-[3-({[2-{[4-(5,5-dimethyl-2-oxido-1,3,2-dioxaphosphinan-2-yl)phenyl]amino}-5-(trifluoromethyl)pyrimidin-4-yl]amino}methyl)pyridin-2-yl]-N-methylmethanesulfonamide] | < 1 µM | < 1 µM | < 1 µM | < 1 µM
CCOP(C)(=O)Cc1ccc(Nc2ncc(C(F)(F)F)c(Nc3ccc(Br)c4c3C(=O)N(C)C4)n2)cc1 (stereo not drawn) [Example 61, Ethyl [4-({4-[(7-bromo-2-methyl-3-oxo-2,3-dihydro-1H-isoindol-4-yl)amino]-5-(trifluoromethyl)pyrimidin-2-yl}amino)benzyl]methylphosphinate] | < 1 µM | < 1 µM | 1 to 10 µM | 
CCOP(=O)(Cc1ccc(Nc2ncc(C(F)(F)F)c(Nc3ccc(Br)c4c3C(=O)N(C)C4)n2)c(OC)c1)OCC [Example 62, Diethyl [4-({4-[(7-bromo-2-methyl-3-oxo-2,3-dihydro-1H-isoindol-4-yl)amino]-5-(trifluoromethyl)pyrimidin-2-yl}amino)-3-methoxybenzyl]phosphonate] | < 1 µM | < 1 µM | 1 to 10 µM | 
CCOP(C)(=O)Cc1ccc(Nc2ncc(C(F)(F)F)c(Nc3ccc(-c4cnn(C)c4)c4c3C(=O)N(C)C4)n2)cc1 (stereo not drawn) [Example 63, Ethyl methyl(4-{[4-{[2-methyl-7-(1-methyl-1H-pyrazol-4-yl)-3-oxo-2,3-dihydro-1H-isoindol-4-yl]amino}-5-(trifluoromethyl)pyrimidin-2-yl]amino}benzyl)phosphinate] | < 1 µM | < 1 µM | < 1 µM | 
CCOP(C)(=O)Cc1ccc(Nc2ncc(C(F)(F)F)c(Nc3ccc(-c4cnn(CCO)c4)c4c3C(=O)N(C)C4)n2)cc1 (stereo not drawn) [Example 64, Ethyl (4-{[4-({7-[1-(2-hydroxyethyl)-1H-pyrazol-4-yl]-2-methyl-3-oxo-2,3-dihydro-1H-isoindol-4-yl}amino)-5-(trifluoromethyl)pyrimidin-2-yl]amino}benzyl)methylphosphinate] | < 1 µM | < 1 µM | < 1 µM | 
CCOP(C)(=O)Cc1ccc(Nc2ncc(C(F)(F)F)c(Nc3ccc(-c4cnn(C[C@@H](O)CO)c4)c4c3C(=O)N(C)C4)n2)cc1 (stereo partly drawn) [Example 65, Ethyl [4-({4-[(7-{1-[(2R)-2,3-dihydroxypropyl]-1H-pyrazol-4-yl}-2-methyl-3-oxo-2,3-dihydro-1H-isoindol-4-yl)amino]-5-(trifluoromethyl)pyrimidin-2-yl}amino)benzyl]methylphosphinate] | < 1 µM | < 1 µM | < 1 µM | 
CCOP(C)(=O)Cc1ccc(Nc2ncc(C(F)(F)F)c(Nc3ccc(-c4ccccc4)c4c3C(=O)N(C)C4)n2)cc1 (stereo not drawn) [Example 66, Ethyl methyl[4-({4-[(2-methyl-3-oxo-7-phenyl-2,3-dihydro-1H-isoindol-4-yl)amino]-5-(trifluoromethyl)pyrimidin-2-yl}amino)benzyl]phosphinate] | < 1 µM |  |  | < 1 µM
CCOP(C)(=O)Cc1ccc(Nc2ncc(C(F)(F)F)c(Nc3ccc(-c4cn[nH]c4)c4c3C(=O)N(C)C4)n2)cc1 (stereo not drawn) [Example 67, Ethyl methyl(4-{[4-{[2-methyl-3-oxo-7-(1H-pyrazol-4-yl)-2,3-dihydro-1H-isoindol-4-yl]amino}-5-(trifluoromethyl)pyrimidin-2-yl]amino}benzyl)phosphinate] | < 1 µM | < 1 µM | < 1 µM | 
C=C(C)c1ccc(Nc2nc(Nc3ccc(CP(C)(=O)OCC)cc3)ncc2C(F)(F)F)c2c1CN(C)C2=O (stereo not drawn) [Example 68, Ethyl methyl(4-{[4-{[2-methyl-3-oxo-7-(prop-1-en-2-yl)-2,3-dihydro-1H-isoindol-4-yl]amino}-5-(trifluoromethyl)pyrimidin-2-yl]amino}benzyl)phosphinate] | < 1 µM | < 1 µM | 1 to 10 µM | 
CCOP(=O)(Cc1ccc(Nc2ncc(C(F)(F)F)c(Nc3ccc(-c4cnn(CCO)c4)c4c3C(=O)N(C)C4)n2)c(OC)c1)OCC [Example 69, Diethyl (4-{[4-({7-[1-(2-hydroxyethyl)-1H-pyrazol-4-yl]-2-methyl-3-oxo-2,3-dihydro-1H-isoindol-4-yl}amino)-5-(trifluoromethyl)pyrimidin-2-yl]amino}-3-methoxybenzyl)phosphonate] | < 1 µM | < 1 µM | < 1 µM | 
